According to publication PMC12436592 (Nature Communications, 2025):
Several values for one entry are separate records, joined by “and”; a condition that tells them apart may be missing. Equal entries are not always repeated.

T1: hP2X7R (Homo sapiens, UniProt Q99572)
T1 sequence (Q99572 1-595): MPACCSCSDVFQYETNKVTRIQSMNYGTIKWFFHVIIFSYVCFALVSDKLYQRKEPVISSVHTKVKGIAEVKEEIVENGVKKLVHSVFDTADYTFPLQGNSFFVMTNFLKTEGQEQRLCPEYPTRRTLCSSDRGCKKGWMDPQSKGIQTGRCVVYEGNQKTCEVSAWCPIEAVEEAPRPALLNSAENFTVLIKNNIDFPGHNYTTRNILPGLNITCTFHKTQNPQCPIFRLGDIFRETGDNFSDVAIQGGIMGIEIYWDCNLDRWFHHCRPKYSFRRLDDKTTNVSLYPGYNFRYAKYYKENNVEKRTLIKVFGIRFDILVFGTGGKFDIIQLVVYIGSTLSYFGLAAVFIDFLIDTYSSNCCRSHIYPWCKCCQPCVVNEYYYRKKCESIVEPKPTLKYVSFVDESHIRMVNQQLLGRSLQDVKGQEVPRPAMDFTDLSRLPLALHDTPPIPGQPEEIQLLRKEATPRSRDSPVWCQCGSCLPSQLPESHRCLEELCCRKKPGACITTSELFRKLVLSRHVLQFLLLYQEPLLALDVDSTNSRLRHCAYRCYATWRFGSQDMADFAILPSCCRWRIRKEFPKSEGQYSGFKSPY

B1: full-length wild-type human P2X7 receptor (receptor, UniProt Q99572 1-595, looked up)
chain: T1 sequence (Q99572 1-595)
modifications: palmitoylation of residues in the C-cys anchor; limited glycosylation, acylation and palmitoylation modelled
notes: P2X7 receptor (P2X purinoceptor 7), human, full-length wild-type, no mutations or truncations; C-terminal HRV 3-C site, GFP and histidine tag removed during purification; Homotrimeric ion channel; also called hP2X7R; hP2X7; not shown: GFP, C-terminal, cleaved
B2: full-length wild-type mouse P2X7 receptor (receptor, UniProt Q9Z1M0 1-595, looked up)
chain: MPACCSWNDVLQYETNKVTRIQSTNYGTVKWVLHMIVFSYISFALVSDKLYQRKEPVISSVHTKVKGIAEVTENVTEGGVTKLGHSIFDTADYTFPLQGNSFFVMTNYVKSEGQVQTLCPEYPRRGAQCSSDRRCKKGWMDPQSKGIQTGRCVPYDKTRKTCEVSAWCPTEEEKEAPRPALLRSAENFTVLIKNNIHFPGHNYTTRNILPTMNGSCTFHKTWDPQCSIFRLGDIFQEAGENFTEVAVQGGIMGIEIYWDCNLDSWSHHCRPRYSFRRLDDKNTDESFVPGYNFRYAKYYKENNVEKRTLIKAFGIRFDILVFGTGGKFDIIQLVVYIGSTLSYFGLATVCIDLLINTYSSAFCRSGVYPYCKCCEPCTVNEYYYRKKCESIMEPKPTLKYVSFVDEPHIRMVDQQLLGKSLQVVKGQEVPRPQMDFSDLSRLSLSLHDSPLTPGQSEEIQLLHEEVAPKSGDSPSWCQCGNCLPSRLPEQRRALEELCCRRKPGRCITTSKLFHKLVLSRDTLQLLLLYQDPLLVLGEEATNSRLRHRAYRCYATWRFGSQDMADFAILPSCCRWRIRKEFPKTEGQYSGFKYPY
modifications: palmitoylation of residues in the C-cys anchor
notes: P2X7 receptor (P2X purinoceptor 7), mouse, full-length wild-type, no mutations or truncations; C-terminal HRV 3-C site, GFP and histidine tag removed during purification; Homotrimeric ion channel; solved in the apo closed state; also called mP2X7R; mP2X7; not shown: GFP, C-terminal, cleaved

Legend:
hP2X7R = biological target: T1, hP2X7R; test: Ethidium bromide accumulation in hP2X7R-expressing HEK293 cells; type: cell-based; set-up: expressed in transfected cells; details: for mean % of maximum accumulation / MAX100 (% of maximum accumulation, replicates 1-3): BzATP 6 μM; for IC50: hP2X7R, ethidium bromide accumulation, mean ± SD, triplicate; for ΔΔGexp: relative to UB-ALT-P30, from experimental pIC50 values, T = 298 K; for MAX100 (% of maximum accumulation, replicates 1-3): single replicates
Procedure: Human P2X7R-expressing HEK293 cells were cultured in a humidified atmosphere of 5% CO2 at 37 °C in Dulbecco’s Modification of Eagle’s Medium (DMEM; Corning) supplemented with 10% (v/v) fetal bovine serum (Corning) and 1% (v/v) antibiotic–antimycotic (Gibco)[75]. To perform the assay, the DMEM was removed, and the HEK293 cells were washed with 3 mL of 1X DPBS (Dulbecco’s Phosphate-Buffered Saline; Corning). After the removal of DPBS solution, the cells were detached from the dish with 1 mL of trypsin/EDTA (Gibco), and the cells were collected by centrifugation. The cells (density of 2.25 × 10^7) were re-suspended in 4-(2-hydroxyethyl)-1-piperazineethanesulfonic acid (HEPES)-buffered salt solution consisting of 140 mM potassium chloride, 1 mM ethylene diamine tetraacetic acid (EDTA), 5 mM glucose, 20 mM HEPES, and 0.1 mM ethidium bromide (pH 7.4). The vehicles or appropriate range of concentrations of compounds (10 μL, pre-diluted in 10% (v/v) DMSO in DW from 10 mM stock) were added to each well of 96-well black plate (Corning), and 80 μL of the cell suspension was subsequently added to each well. BzATP (10 μL, pre-diluted in DW from 10 mM stock) was then added, and the final assay volume was maintained at 100 μL. After the incubation in 5% CO2 at 37 °C for 2 h, the ethidium dye uptake was detected by measuring the fluorescence (excitation wavelength of 530 nm and emission wavelength of 590 nm) of each well using a CHAMELEON™ Multi-Technology Plate Reader. The antagonistic activities of compounds are expressed as the percentages relative to the maximum accumulation of ethidium bromide observed in the control group with the stimulation of the hP2X7R by an agonist, BzATP. The IC50 values of compounds as antagonists were calculated using nonlinear regression analysis using OriginPro 9.1 software.

[1] = biological target: the molecule itself; test: cryo-EM structure; purified detergent-solubilised receptor (20 mM HEPES pH 7.0, 100 mM NaCl, 0.5 mM C12M); apo, or incubated with 900 uM ATP or antagonist at 3-4x the molar concentration of the monomer
[2] = antagonist concentration 3.2 (unit not given)
[3] = antagonist concentration 16 (unit not given)
[4] = antagonist concentration 80 (unit not given)
[5] = antagonist concentration 400 (unit not given)
[6] = antagonist concentration 2000 (unit not given)
[7] = antagonist concentration 10000 (unit not given)
[8] = antagonist concentration 100 (unit not given)
[9] = antagonist concentration 1000 (unit not given)

Row | Molecule | mean % of maximum accumulation (hP2X7R; [2]) | mean % of maximum accumulation (hP2X7R; [3]) | mean % of maximum accumulation (hP2X7R; [4]) | mean % of maximum accumulation (hP2X7R; [5]) | mean % of maximum accumulation (hP2X7R; [6]) | mean % of maximum accumulation (hP2X7R; [7]) | IC50 (hP2X7R) | ΔΔGexp (hP2X7R) | MAX100 (% of maximum accumulation, replicates 1-3) (hP2X7R; [2]) | MAX100 (% of maximum accumulation, replicates 1-3) (hP2X7R; [3]) | MAX100 (% of maximum accumulation, replicates 1-3) (hP2X7R; [4]) | MAX100 (% of maximum accumulation, replicates 1-3) (hP2X7R; [5]) | MAX100 (% of maximum accumulation, replicates 1-3) (hP2X7R; [6]) | MAX100 (% of maximum accumulation, replicates 1-3) (hP2X7R; [7]) | mean % of maximum accumulation (hP2X7R; [8]) | mean % of maximum accumulation (hP2X7R; [9]) | MAX100 (% of maximum accumulation, replicates 1-3) (hP2X7R; [8]) | MAX100 (% of maximum accumulation, replicates 1-3) (hP2X7R; [9]) | stoichiometry N [1]
1 | O=C(NNc1ccccc1Cl)C12C3C4C5C3C1C5C42 (centres unmarked) [UB-ALT-P38] | 92.6488% | 90.4406% | 85.6943% | 54.1625% | 8.486% | 7.125% | 430 ± 64 nM | 1.36 ± 1.50 kcal/mol | 94.8207 and 85.2995 and 97.8261 | 88.8446 and 87.4773 and 95 | 92.8287 and 88.3848 and 75.8696 | 70.5179 and 47.1869 and 44.7826 | 13.1474 and 15.7895 and -3.478 | 12.9482 and 12.3412 and -3.913 | – | – | – | – | –
2 | CC12CC3CC(C)(C1)CC(C(=O)NNc1ccccc1Cl)(C3)C2 [UB-ALT-P36] | 75.2635% | 81.0675% | 68.3254% | 62.0321% | 5.603% | -3.752% | 477 ± 170 nM | 1.43 ± 1.93 kcal/mol | 66.4908 and 84.0361 | 77.5726 and 94.2771 and 71.3528 | 56.9921 and 86.4458 and 61.5385 | 60.1583 and 61.747 and 64.191 | 0.7916 and 7.53 and 8.488 | -6.86 and -5.723 and 1.326 | – | – | – | – | –
3 | CC12CC3(C)CC(C)(C1)CC(C(=O)NNc1ccccc1Cl)(C2)C3 [UB-ALT-P37] | – | – | – | – | – | 5.192% | > 1000 nM | >1.88 kcal/mol | – | – | – | – | – | 17.7966 and 0.7519 and -2.973 | 69.1292% | 66.8307% | 71.3983 and 82.2055 and 53.7838 | 82.6271 and 51.3784 and 66.4865 | –
4 | B1 | – | – | – | – | – | – | – | – | – | – | – | – | – | – | – | – | – | – | 3
5 | B2 | – | – | – | – | – | – | – | – | – | – | – | – | – | – | – | – | – | – | 3
